Experimental data taken from patent US4788188A, “Quinolylglycinamide derivatives, the process for preparation thereof and their therapeutic application as psychotropic drugs” (Sanofi (S.A.), priority 1985, dated 1988).
Counter-ions that a name gives are not always drawn.

Experiments:
benzodiazepine receptors = experiment: Affinity for benzodiazepine receptors: inhibition of specific binding of [3H]flunitrazepam (WASTEK et al., modified); parameters: species or system rats; conditions: 50% inhibition of specific binding of [3H]flunitrazepam, rat brain membranes
Procedure: This study was performed according to the technique of WASTEK et al., (Europ. J. Pharmacol., 1978, 50, 445-447) slightly modified.
Rats are sacrificed by decapitation, and the brain is removed, ground, suspended, centrifuged and resuspended.
Samples of this suspension are incubated in the presence of [^3 H]flunitrazepam, alone or in the presence of increasing concentrations of the test compound.
The radioactivity bound on the membranes is then determined by liquid scintillation.
The concentration of product which 50% inhibits the specific binding of [^3 H]flunitrazepam (IC50) is thereby determined.

pentetrazole seizures = experiment: Anticonvulsant activity: protection against pentetrazole seizures (EVERETT and RICHARDS); assay type: in vivo, mice; conditions: pentetrazole 125 mg/kg subcutaneously, no tonic seizures during 30 minutes, 95% confidence limits (FINNEY); for ED50: Mus musculus, po, 0.5 h, read-out: ED50 (Confidence interval)
Procedure: The protective effect produced by the compound of the inventon against pentetrazole seizures was studied.
This test was carried out according to the method of EVERETT and RICHARDS (J. Pharm. Exp. Ther., 1944, 81, 402-407). The test products and reference products were administered orally (suspended in gum arabic) to batches of 10 mice, 30 minutes […] pentetrazole (125 mg/kg subcutaneously).

food neophobia = experiment: Anxiolytic activity: food neophobia test; assay type: in vivo, mice; conditions: dose 16 mg/kg, SC, 30 minutes after treatment
Procedure: This activity was studied by the food neophobia test. In effect, a pronounced inhibition of the feed intake can be obtained in mice when both the food and the enclosure are unfamiliar to the aninal (R. J. STEPHENS, Brit. J. Pharmacol., 1973, 47, 145 P). All anxiolytics specifically counteract neophobia phenomena.
30 minutes after oral or subcutaneous treatment with the test derivatives and the reference products, the mice, fasted for 16 to 20 hours, are isolated in a translucent enclosure and placed in the presence of an unfamiliar food for 5 minutes.
The amounts consumed are evaluated in proportion to the weight of the animal.
In each batch, the mean consumption and also the percentage variation relative to the control batch are calculated in this manner.

For `CCCCc1ccc2ncc(C(=O)OCC)c(NCC(=O)N(CC)CC)c2c1` [Derivative 6, 2-(3-Ethoxycarbonyl-6-butyl-4-quinolyl)amino-N,N-diethylacetamide], the IC50 (benzodiazepine receptors) was 0.155 µM.

`CCOC(=O)c1cnc2ccc(Cl)cc2c1NCC(=O)N(C(C)C)C(C)C` [Derivative 34, 2-(3-Ethoxycarbonyl-6-chloro-4-quinolyl)amino-N,N-diisopropylacetamide] was tested, and the IC50 (benzodiazepine receptors) was 0.048 µM.

Compound `CCCN(CCC)C(=O)CNc1c(C(=O)OCC)cnc2ccc([N+](=O)[O-])cc12` [Derivative 18, 2-(3-Ethoxycarbonyl-6-nitro-4-quinolyl)amino-N,N-dipropylacetamide] has an IC50 (benzodiazepine receptors) of 0.026 µM.

`CCCN(CCC)C(=O)CNc1c(C(=O)OCC)cnc2ccc(SC)cc12` [Derivative 20, 2-(3-Ethoxycarbonyl-6-methylthio-4-quinolyl)amino-N,N-dipropylacetamide] showed an IC50 (benzodiazepine receptors) of 0.04 µM.

Compound `CCN(CC)C(=O)CNc1c(C(=O)Nc2ccccc2)cnc2ccc(Cl)cc12` [Derivative 56, 2-[3-(N-Phenylcarbamoyl)-6-chloro-4-quinolyl]amino-N,N-diethylacetamide] has an IC50 (benzodiazepine receptors) of 0.136 µM.

`CCC1(c2ccccc2)C(=O)NC(=O)NC1=O` [Phenobarbital, reference compound] gave an ED50 (pentetrazole seizures) of 10 mg/kg.

For `CCOC(=O)c1cnc2ccc(Cl)cc2c1NCC(N)=O` [Derivative 30, 2-[(3-Ethoxycarbonyl-6-chloro-4-quinolyl)amino]acetamide], the IC50 (benzodiazepine receptors) was 0.7 µM.

`CCCNC(=O)c1cnc2ccc(Cl)cc2c1NCC(=O)N(CC)CC` [Derivative 55, 2-[3-(N-Propylcarbamoyl)-6-chloro-4-quinolyl]amino-N,N-diethylacetamide] showed an IC50 (benzodiazepine receptors) of 0.15 µM.

In the case of `CCCN(CCC)C(=O)CN(C)c1c(C(=O)OCc2ccccc2)cnc2ccc(C)cc12` [Derivative 53, [N'-(3-Benzyloxycarbonyl-6-methyl-4-quinolyl)-N'-methylamino]-N,N-dipropylacetamide], the IC50 (benzodiazepine receptors) is reported as 0.638 µM.

For `CCCN(CCC)C(=O)CNc1c(C(=O)O)cnc2ccc(Cl)cc12` [Derivative 46, 2-(3-Carboxy-6-chloro-4-quinolyl)amino-N,N-dipropylacetamide], the IC50 (benzodiazepine receptors) was 0.001 µM and the “Percentage increase (food consumption relative to control batch)” value (food neophobia) was 75%.

With `CCOC(=O)c1cnc2ccc(Cl)cc2c1NCC(=O)N1CCCC1` [Derivative 26, 1-{2-[(3-Ethoxycarbonyl-6-chloro-4-quinolyl)amino]acetyl}pyrrolidine] the IC50 (benzodiazepine receptors) was 0.333 µM and the ED50 (pentetrazole seizures) was 50 mg/kg.

For `CCOC(=O)c1cnc2ccc(Cl)cc2c1NCC(=O)N(C)C1CCCCC1` [Derivative 23, 2-(3-Ethoxycarbonyl-6-chloro-4-quinolyl)amino-N-methyl-N-cyclohexylacetamide], the IC50 (benzodiazepine receptors) was 0.1 µM.

`CCOC(=O)c1cnc2ccc(Cl)cc2c1NCC(=O)NC` [Derivative 41, 2-(3-Ethoxycarbonyl-6-chloro-4-quinolyl)amino-N-methylacetamide] showed an IC50 (benzodiazepine receptors) of 0.44 µM and an ED50 (pentetrazole seizures) of 46 mg/kg.

`CCN(CC)C(=O)CNc1c(C(=O)OCc2ccccc2)cnc2ccc(Cl)cc12` [Derivative 50, 2-(3-Benzyloxycarbonyl-6-chloro-4-quinolyl)amino-N,N-diethylacetamide] showed an IC50 (benzodiazepine receptors) of 0.027 µM.

`CCN(CC)C(=O)CNc1c(C(=O)OC(C)C)cnc2ccc(Cl)cc12` [Derivative 48, 2-(3-Isopropyloxycarbonyl-6-chloro-4-quinolyl)amino-N,N-diethylacetamide] showed an IC50 (benzodiazepine receptors) of 0.069 µM.

`CCCN(CCC)C(=O)CNc1c(C(=O)OCC)cnc2ccccc12` [Derivative 15, 2-(3-Ethoxycarbonyl-4-quinolyl)amino-N,N-dipropylacetamide] was tested, and the IC50 (benzodiazepine receptors) was 0.483 µM.

`CCOC(=O)c1cnc2ccccc2c1NCC(=O)N(CC)CC` [Derivative 10, 2-(3-Ethoxycarbonyl-4-quinolyl)amino-N,N-diethylacetamide] was tested, and the IC50 (benzodiazepine receptors) was 1.56 µM and the ED50 (pentetrazole seizures) was 68 mg/kg.

For `CCCN(CCC)C(=O)CNc1c(C(=O)OCC)cnc2ccc(C(F)(F)F)cc12` [Derivative 19, 2-(3-Ethoxycarbonyl-6-trifluoromethyl-4-quinolyl)amino-N,N-dipropylacetamide], the IC50 (benzodiazepine receptors) was 0.028 µM.

Compound `CCOC(=O)c1cnc2ccc(Cl)cc2c1NCC(=O)N(C)c1ccccc1` [Derivative 22, 2-(3-Ethoxycarbonyl-6-chloro-4-quinolyl)amino-N-methyl-N-phenylacetamide] has an IC50 (benzodiazepine receptors) of 0.014 µM.

`O=C(O)c1cnc2ccc(Cl)cc2c1NCC(=O)N1CCCCCC1` [Derivative 45, 1-{2-[(3-Carboxy-6-chloro-4-quinolyl)amino]acetyl}-homopiperidine] was tested, and the IC50 (benzodiazepine receptors) was 0.007 µM.

`CCOC(=O)c1cnc2ccc(Cl)cc2c1NCC(=O)N(C)C` [Derivative 29, 2-(3-Ethoxycarbonyl-6-chloro-4-quinolyl)amino-N,N-dimethylacetamide] was tested, and the IC50 (benzodiazepine receptors) was 0.687 µM and the ED50 (pentetrazole seizures) was 38 mg/kg.

With `CCOC(=O)c1cnc2ccc(Cl)cc2c1NCC(=O)N(C)c1ccc(Cl)cc1` [Derivative 24, 2-(3-Ethoxycarbonyl-6-chloro-4-quinolyl)amino-N-methyl-N-(4-chlorophenyl)acetamide] the IC50 (benzodiazepine receptors) was 0.251 µM.

With `CCCN(C(=O)CNc1c(C(=O)OCC)cnc2ccc(Cl)cc12)c1ccccc1` [Derivative 35, 2-(3-Ethoxycarbonyl-6-chloro-4-quinolyl)amino-N-propyl-N-phenylacetamide] the IC50 (benzodiazepine receptors) was 0.027 µM.

`CCCN(CCC)C(=O)CN(C)c1c(C(=O)OCC)cnc2ccc(Br)cc12` [Derivative 63, [N'-(3-Ethoxycarbonyl-6-bromo-4-quinolyl)-N'-methylamino]-N,N-dipropylacetamide] gave an ED50 (pentetrazole seizures) of 24 mg/kg.

In the case of `CCCN(CCC)C(=O)CNc1c(C(=O)O)cnc2ccc(Br)cc12` [Derivative 47, 2-(3-Carboxy-6-bromo-4-quinolyl)amino-N,N-dipropylacetamide monohydrate], the IC50 (benzodiazepine receptors) is reported as 0.001 µM.

`CCOC(=O)c1cnc2ccc(Cl)cc2c1NCC(=O)N1CCCCCC1` [Derivative 27, 1-{2-[(3-Ethoxycarbonyl-6-chloro-4-quinolyl)amino]acetyl}homopiperidine] gave an IC50 (benzodiazepine receptors) of 0.038 µM.

`CCCN(CCC)C(=O)CNc1c(C(=O)OCC)cnc2ccc(OCC)cc12` [Derivative 16, 2-(3-Ethoxycarbonyl-6-ethoxy-4-quinolyl)amino-N,N-dipropylacetamide] was tested, and the IC50 (benzodiazepine receptors) was 0.038 µM.

`CCOC(=O)c1cnc2ccc(Cl)cc2c1NCC(=O)N1CCOCC1` [Derivative 28, 1-{2-[(3-Ethoxycarbonyl-6-chloro-4-quinolyl)amino]acetyl}morpholine] gave an IC50 (benzodiazepine receptors) of 0.6 µM.

For `CCOC(=O)c1cnc2ccc(Cl)cc2c1NCC(=O)N(CC)CC` [1 maleate], the “ED50 (Confidence interval)” value (pentetrazole seizures; oral, 30 min) was 27 (18-36) mg/kg.

For `CCCN(CCC)C(=O)CN(C)c1c(C(=O)OCC)cnc2ccc(C)cc12.Cl` [Derivative 61, [N'-(3-Ethoxycarbonyl-6-methyl-4-quinolyl)-N'-methylamino]-N,N-dipropylacetamide hydrochloride], the ED50 (pentetrazole seizures) was 24 mg/kg.

Compound `CCOC(=O)c1cnc2ccc(C3CCCCC3)cc2c1NCC(=O)N(CC)CC` [Derivative 9, 2-(3-Ethoxycarbonyl-6-cyclohexyl-4-quinolyl)amino-N,N-diethylacetamide] has an IC50 (benzodiazepine receptors) of 0.9 µM.

Compound `C#CCN(C)C(=O)CNc1c(C(=O)OCC)cnc2ccc(Cl)cc12` [Derivative 36, 2-(3-Ethoxycarbonyl-6-chloro-4-quinolyl)amino-N-methyl-N-(2-propynyl)acetamide] has an IC50 (benzodiazepine receptors) of 0.099 µM.

For `CCCN(CCC)C(=O)CN(C)c1c(C(=O)OCc2ccccc2)cnc2ccc(Cl)cc12` [Derivative 52, [N'-(3-Benzyloxycarbonyl-6-chloro-4-quinolyl)-N'-methylamino]-N,N-dipropylacetamide], the IC50 (benzodiazepine receptors) was 0.727 µM and the ED50 (pentetrazole seizures) was 31 mg/kg.

For `CCOC(=O)c1cnc2ccc(F)cc2c1NCC(=O)N(CC)CC` [Derivative 7, 2-(3-Ethoxycarbonyl-6-fluoro-4-quinolyl)amino-N,N-diethylacetamide], the IC50 (benzodiazepine receptors) was 0.639 µM.

Compound `CCCN(CCC)C(=O)CNc1c(C(C)=O)cnc2ccc(C)cc12` [Derivative 66, 2-(3-Acetyl-6-methyl-4-quinolyl)amino-N,N-dipropylacetamide] has an IC50 (benzodiazepine receptors) of 0.092 µM.

With `CCOC(=O)c1cnc2ccc(Cl)cc2c1NCC(=O)N(CC(C)C)CC(C)C` [Derivative 21, 2-(3-Ethoxycarbonyl-6-chloro-4-quinolyl)amino-N,N-diisobutylacetamide] the IC50 (benzodiazepine receptors) was 0.028 µM.

`CCCCOC(=O)c1cnc2ccc(Cl)cc2c1NCC(=O)N(CC)CC` [Derivative 49, 2-(3-Butoxycarbonyl-6-chloro-4-quinolyl)amino-N,N-diethylacetamide] was tested, and the IC50 (benzodiazepine receptors) was 0.061 µM and the ED50 (pentetrazole seizures) was 54 mg/kg.

Compound `CCOC(=O)c1cnc2ccc(Cl)cc2c1NCC(=O)N1CCCCC1` [Derivative 25, 1-{2-[(3-Ethoxycarbonyl-6-chloro-4-quinolyl)amino]acetyl}piperidine] has an IC50 (benzodiazepine receptors) of 0.148 µM and an ED50 (pentetrazole seizures) of 33 mg/kg.

`CCOC(=O)c1cnc2ccc(C)cc2c1NCC(=O)N(CC)CC` [Derivative 2, 2-[(3-Ethoxycarbonyl-6-methyl)-4-quinolyl]amino-N,N-diethylacetamide hydrochloride] gave an IC50 (benzodiazepine receptors) of 0.041 µM.
